Measurements as given in ChEMBL document CHEMBL5620348, “3-Hydroxy-pyridin-4(1H)-ones as siderophores mediated delivery of isobavachalcone enhances antibacterial activity against pathogenic Pseudomonas aeruginosa” (Eur J Med Chem, 2023).
Active and inactive are the calls of the source. The calls are words filed in the database; no cut-off is given here.

Tests used:
Pseudomonas aeruginosa [1] = assay: Antibacterial activity against Pseudomonas aeruginosa PAO1 assessed as inhibition of bacterial growth incubated for 18 to 20 hrs in presence of MH medium by broth microdilution assay; type: functional, organism-based
Pseudomonas aeruginosa [2] = assay: Antibacterial activity against Pseudomonas aeruginosa PAO1 assessed as inhibition of bacterial growth incubated for 18 to 20 hrs in presence of M9 and FeCl3 medium by broth microdilution assay; type: functional, organism-based
Pseudomonas aeruginosa [3] = assay: Antibacterial activity against multi-drug resistant Pseudomonas aeruginosa clinical isolate FB assessed as inhibition of bacterial growth by measuring minimum inhibitory concentration incubated for 18 to 20 hrs in presence of M9 medium by broth microdilution assay; type: functional; settings: time 18-20 hrs
Klebsiella pneumoniae = assay: Antibacterial activity against Klebsiella pneumoniae ATCC 700603 assessed as inhibition of bacterial growth by measuring minimum inhibitory concentration incubated for 18 to 20 hrs in presence of M9 medium by broth microdilution assay; type: functional; settings: time 18-20 hrs
Pseudomonas aeruginosa [4] = assay: Antibacterial activity against Pseudomonas aeruginosa PAO1 assessed as inhibition of bacterial growth by measuring minimum inhibitory concentration incubated for 18 to 20 hrs in presence of M9 medium by broth microdilution assay; type: functional; settings: time 18-20 hrs
Pseudomonas aeruginosa [5] = assay: Antibacterial activity against multi-drug resistant Pseudomonas aeruginosa clinical isolate 1129 assessed as inhibition of bacterial growth by measuring minimum inhibitory concentration incubated for 18 to 20 hrs in presence of M9 medium by broth microdilution assay; type: functional; settings: time 18-20 hrs
Staphylococcus aureus [6] = assay: Antibacterial activity against Staphylococcus aureus ATCC 25923 assessed as inhibition of bacterial growth by measuring minimum inhibitory concentration incubated for 18 to 20 hrs in presence of M9 medium by broth microdilution assay; type: functional; settings: time 18-20 hrs
Pseudomonas aeruginosa [7] = assay: Antibacterial activity against Pseudomonas aeruginosa PAO1 assessed as inhibition of bacterial growth by measuring minimum inhibitory concentration incubated for 18 to 20 hrs in presence of MH medium by broth microdilution assay; type: functional; settings: time 18-20 hrs
Pseudomonas aeruginosa [8] = assay: Antibacterial activity against Pseudomonas aeruginosa ATCC27853 assessed as inhibition of bacterial growth by measuring minimum inhibitory concentration incubated for 18 to 20 hrs in presence of M9 medium by broth microdilution assay; type: functional; settings: time 18-20 hrs
Pseudomonas aeruginosa [9] = assay: Antibacterial activity against multi-drug resistant Pseudomonas aeruginosa clinical isolate 1167 assessed as inhibition of bacterial growth by measuring minimum inhibitory concentration incubated for 18 to 20 hrs in presence of M9 medium by broth microdilution assay; type: functional; settings: time 18-20 hrs
Escherichia coli = assay: Antibacterial activity against Escherichia coli ATCC 25922 assessed as inhibition of bacterial growth by measuring minimum inhibitory concentration incubated for 18 to 20 hrs in presence of M9 medium by broth microdilution assay; type: functional; settings: time 18-20 hrs
Pseudomonas aeruginosa [10] = assay: Antibacterial activity against Pseudomonas aeruginosa PAO1 assessed as inhibition of bacterial growth by measuring minimum inhibitory concentration incubated for 18 to 20 hrs in presence of M9 and FeCl3 medium by broth microdilution assay; type: functional; settings: time 18-20 hrs
Pseudomonas aeruginosa [11] = assay: Antibacterial activity against multi-drug resistant Pseudomonas aeruginosa clinical isolate 1121 assessed as inhibition of bacterial growth by measuring minimum inhibitory concentration incubated for 18 to 20 hrs in presence of M9 medium by broth microdilution assay; type: functional; settings: time 18-20 hrs
Pseudomonas aeruginosa [12] = assay: Antibacterial activity against Pseudomonas aeruginosa PAO1 assessed as inhibition of bacterial growth incubated for 18 to 20 hrs in presence of M9 medium by broth microdilution assay; type: functional, organism-based
Pseudomonas aeruginosa [13] = assay: Antibacterial activity against Pseudomonas aeruginosa PAO1 assessed as inhibition of bacterial growth at 32 ug/ml incubated upto 24 hrs by time-kill based microplate reader assay; type: functional, organism-based; settings: dose 32.0 µg/ml
Staphylococcus aureus [14] = assay: Bactericidal activity against Staphylococcus aureus ATCC 25923 assessed as inhibition of bacterial growth at 2 times MIC incubated upto 24 hrs by time-kill based microplate reader assay; type: functional, organism-based
Vero [15] = assay: Cytotoxicity against green monkey Vero cells assessed as reduction in cell viability at 1 to 32 ug/ml incubated for 24 hrs by MTT assay; type: toxicity, cell-based; settings: chlorocebus sabaeus, dose 1-32 µg/ml
Pseudomonas aeruginosa [16] = assay: Antibacterial activity against Pseudomonas aeruginosa PAO1 infected in Caenorhabditis elegans assessed as increase in worm survival rate at 32 ug/ml incubated for 60 hrs; type: functional, organism-based; settings: dose 32.0 µg/ml
Pseudomonas aeruginosa [17] = assay: Antibacterial activity against Pseudomonas aeruginosa PAO1 assessed as reduction in metabolic activity incubated for 6 hrs by resazurin reagent based microplate reader analysis; type: functional, organism-based
Pseudomonas aeruginosa [18] = assay: Antibacterial activity against Pseudomonas aeruginosa PAO1 assessed as inhibition of bacterial growth at 2 times MIC incubated upto 24 hrs in presence of Fe(III) by time-kill based microplate reader assay; type: functional, organism-based
Staphylococcus aureus [19] = assay: Bactericidal activity against Staphylococcus aureus ATCC 25923 assessed as inhibition of bacterial growth at 1 to 2 times MIC incubated upto 24 hrs by time-kill based microplate reader assay; type: functional, organism-based
Cell membrane [20] = assay: Disruption of cell membrane integrity in Pseudomonas aeruginosa PAO1 assessed as increase in red fluorescence incubated for 5.5 hrs by propidium iodide staining based confocal laser-scanning microscopic analysis; type: cell membranes
Pseudomonas aeruginosa [21] = assay: Antibacterial activity against Pseudomonas aeruginosa PAO1 assessed as inhibition of bacterial growth at 1 to 4 times MIC incubated upto 24 hrs by time-kill based microplate reader assay; type: functional, organism-based
Pseudomonas aeruginosa [22] = assay: Antibacterial activity against Pseudomonas aeruginosa PAO1 infected in Caenorhabditis elegans assessed as increase in worm survival rate at 2 times MIC incubated for 60 hrs relative to control; type: functional
Cell membrane [23] = assay: Disruption of cell membrane integrity in Pseudomonas aeruginosa PAO1 assessed as increase in protein leakage at 0.5 to 4 MIC incubated for 6 hrs by BCA protein assay; type: cell membranes
Cell membrane [24] = assay: Disruption of cell membrane integrity in Pseudomonas aeruginosa PAO1 assessed as increase in nucleic acid leakage at 0.5 to 4 MIC incubated for 6 hrs by microplate reader analysis; type: cell membranes
Pseudomonas aeruginosa [25] = assay: Antibacterial activity against Pseudomonas aeruginosa PAO1 infected in Caenorhabditis elegans assessed as increase in worm survival rate at 0.5 times MIC incubated for 60 hrs; type: functional, organism-based
Vero [26] = assay: Cytotoxicity against green monkey Vero cells assessed as reduction in cell viability at 128 ug/ml incubated for 24 hrs by MTT assay; type: toxicity, cell-based; settings: chlorocebus sabaeus, dose 128 µg/ml
Vero [27] = assay: Cytotoxicity against green monkey Vero cells assessed as reduction in cell viability at > 32 ug/ml incubated for 24 hrs by MTT assay; type: toxicity, cell-based; settings: chlorocebus sabaeus, dose > 32 µg/ml

SMILES | IC50 (Pseudomonas aeruginosa [1]) [mg/L] | IC50 (Pseudomonas aeruginosa [2]) [mg/L] | MIC (Pseudomonas aeruginosa [3]) [mg/L] | MIC (Klebsiella pneumoniae) [mg/L] | MIC (Pseudomonas aeruginosa [4]) [mg/L] | MIC (Pseudomonas aeruginosa [5]) [mg/L] | MIC (Staphylococcus aureus [6]) [mg/L] | MIC (Pseudomonas aeruginosa [7]) [mg/L] | MIC (Pseudomonas aeruginosa [8]) [mg/L] | MIC (Pseudomonas aeruginosa [9]) [mg/L] | MIC (Escherichia coli) [mg/L] | MIC (Pseudomonas aeruginosa [10]) [mg/L] | MIC (Pseudomonas aeruginosa [11]) [mg/L] | IC50 (Pseudomonas aeruginosa [12]) [mg/L] | further results
CCn1cc(C(=O)O)c(=O)c2cc(F)c(N3CCNCC3)cc21 [NORFLOXACIN] | 0.03 | 0.07 | 0.5 | 2 | 0.25 | 1 | 2 | 0.125 | 1 | 0.25 | 0.015 | 0.25 | 0.5 | 0.08 | 
CC(C)=CCc1c(OCCCCCC(=O)NCc2cc(=O)c(O)cn2C)ccc(C(=O)/C=C/c2ccc(O)cc2)c1O | 19.7 | > 128 | 16 | > 128 | 16 | 16 | 32 | 32 | 32 | 8 | > 128 | > 128 | 8 | 1.72 | 
CC(C)=CCc1c(O)ccc(C(=O)/C=C/c2ccc(O)cc2)c1O [ISOBAVACHALCONE] | > 128 | > 128 | > 128 | > 128 | > 128 | > 128 | 4 | > 128 | > 128 | > 128 | > 128 | > 128 | > 128 | > 128 | Activity (Pseudomonas aeruginosa [13]): inactive; Activity (Staphylococcus aureus [14]): Active; Activity (Vero [15]): Non-Toxic; Activity (Pseudomonas aeruginosa [16]): inactive
CC1(C)S[C@@H]2[C@H](NC(=O)[C@H](N)c3ccccc3)C(=O)N2[C@H]1C(=O)O [AMPICILLIN] | 12.6 | 6.06 | > 128 | > 128 | 32 | > 128 | 0.25 | 32 | > 128 | > 128 | 8 | 32 | > 128 | 12.7 | 
CC(C)=CCc1c(O)ccc(C(=O)/C=C/c2ccc(OCCCOCc3cc(=O)c(O)cn3C)cc2)c1O | 16.8 | > 128 | 16 | > 128 | 16 | 8 | 32 | 32 | 32 | 8 | > 128 | > 128 | 8 | 1.45 | Activity (Pseudomonas aeruginosa [17]): Dose-Dependent Effect; Activity (Pseudomonas aeruginosa [18]): inactive; Activity (Staphylococcus aureus [19]): inactive; Activity (Cell membrane [20]): Dose-Dependent Effect; Activity (Pseudomonas aeruginosa [21]): Active; Survival (Pseudomonas aeruginosa [22]): 55%; Activity (Cell membrane [23]): Active; Activity (Cell membrane [24]): Active; Activity (Pseudomonas aeruginosa [25]): inactive; Activity (Vero [26]): Non-Toxic; Activity (Vero [27]): Toxic
